Laboratory results as given in paper PMC10892288, “Early Stage Preclinical Formulation Strategies to Alter the Pharmacokinetic Profile of Two Small Molecule Therapeutics” (Pharmaceuticals, 2024).
Converted amounts (≈) assume the structure as drawn. Like-named read-outs stand apart in the source and are kept apart here.

What was measured:
[1] = Water solubility (physiochemical properties); format: physicochemical; conditions: water
[2] = Vehicle screening for solution or suspension formulations; format: physicochemical
Method: Based on the target concentration, G7883 was screened at 3.3 mg/mL in three different vehicles of 100%PEG400, 10%DMSO in 90%PEG400, and 20%DMSO in 80%PEG400 to generate a stable solution. […] A total of 50% DMSO is the maximum amount compatible with the iPRECIO pump system. Based on the target concentration, G6893 was screened at 5 mg/mL in four different vehicles as follows: 100% PEG400, 20% DMSO in 80% PEG400, 20% DMA and 40% PG in 40% PEG400, and 10% EtOH and 20% HPbCD in 70% water at pH 4.5. G6893 achieved a solution at the target concentration of 5 mg/mL in 100% PEG400 and maintained a solution without precipitation after dilution in PBS buffer.
G7883 was screened in different oil vehicles including corn, coconut, paraffin, soybean, and sunflower oil.

[3] = pKa (physiochemical properties); format: physicochemical
Text: Table 1 Physiochemical properties of […] and […]. | column: […]; […]

[4] = Mouse PK of G7883, PO in MCT vehicle; format: in vivo, female CD-1 mice; conditions: for AUC(0-t) / Cmax / Tmax / bioavailability / half-life: female; for AUC(0-t): CD-1, mouse, plasma, po, read-out: AUC0 to 8; for Cmax / Tmax / bioavailability / half-life: CD-1, plasma
Method: A total of 0.6% w/v Methylcellulose, 0.2% w/v Tween 80 in water (MCT) was prepared by slowly adding Methylcellulose (Methylocel A15 LV; CAS 9004-67-5, Part ID: 64605-500G-F 27.5-31.5% Methoxyl basis, Sigma-Aldrich, St. Louis, MO, USA) in small portions to prevent clumping while stirring into water at 70–80 °C. Once a homogeneous suspension formed, Tween 80 (Polysorbate 80; CAS#9005-65-6 (Polyoxyethylene (20) Sorbitan Monooleate; Tween 80) Part ID: PO138, Spectrum Chemical, New Brunswick, NJ, USA) was added and stirred until fully dissolved. Vehicle was filtered through 0.22 µm PES (Corning REF no. 431098) prior to adding to the compound for dosing. Respective compound was added based on the target concentration to the MCT vehicle and stirred at 35 °C until the power was well-dispersed. Formulations were homogenized through a polytron homogenizer and then sonicated in a water bath sonicator until a homogeneous suspension was achieved.
The pharmacokinetics of G7883 were determined in female CD-1 mice obtained from Charles River Laboratories (Hollister, CA, USA) with a body weight ranging from 20 to 25 g. The pharmacokinetics of G6893 were determined in female C57BL-6 mice (Lingchang/Vital River Laboratory Animal Co., Ltd., Shanghai/Beijing, China) with a body weight ranging from 20 to 35 g. Three mice were given an oral dose of G7883 formulated in 0.6% Methylcellulose, 0.2% Tween80 in water (MCT) at 25 mg/kg and 250 mg/kg with a dosing volume of 10 mL/kg. Food and water were available ad libitum to the animals. Three mice were given an oral dose of G6893 formulated in 0.6% methylcellulose; 0.2% Tween80 in water with pH adjusted to 2.5 at 30 mg/kg and a dose volume of 5 mL/kg. For both compounds, G7883 and G6893, 15 µL of blood was collected serially at 0. 25, 0.5, 1, 2, 4, 6, 8, and 24 h post-dose and diluted in 60 µL of 1.7 mg/mL potassium K2EDTA water. The frozen blood samples were stored at −70 °C or lower until analysis.
All plasma and cell media concentrations of G7883 and G6893 were determined using liquid chromatography–tandem mass spectrometry after protein precipitation with acetonitrile and injection of the supernatant onto the column (Waters ACQUITY UPLC BEH C18 1.7 μm, 2.1 × 50 mm for G7883 and G6893). The aqueous mobile phase was 0.1% formic acid, 2 mM ammonium formate in water/acetonitrile (v:v, 95:5), and the organic mobile phase was 0.1% formic acid, 2 mM ammonium formate in acetonitrile/water (v:v, 95:5). An AB Sciex API 4000 Triple Quad instrument was used for detecting G7883 and G6893 (Figure S2). The electrospray ionization source in both columns was operated in the positive ion and multiple reaction monitoring (MRM) detection modes. The MRM transitions for G7883 and G6893 were m/z 462.2 (Q1) and 253.10 (Q3) and m/z 454.2 (Q1) and 325.9 (Q3), respectively. The dynamic range of both assays was 0.50–50.0 ng/mL, and the total run time was 1.6 min. The lower limit of quantitation of the assay was […], and the dilution quality control concentration was set at 10 ng/mL with acceptance criteria for accuracy and precision of 25%.
All plasma and cell media concentrations of G7883 were determined using liquid chromatography–tandem mass spectrometry after protein precipitation with acetonitrile and injection of the supernatant onto the column (Phenomenex Kinetex XB-C18, 30 × 2.1 mm, 2.6 µm). The aqueous mobile phase was 10 mM of ammonium formate in water, and the organic mobile phase was 0.1% formic acid in acetonitrile. An AB Sciex API 5500 Triple Quad instrument was used for detecting G7883. The electrospray ionization source in both columns was operated in the positive ion and MRM detection modes. The MRM transitions for G7883 were m/z 462.2 (Q1) and 253.10 (Q3), respectively. The dynamic range of the assay was 0.50–50.0 ng/mL, and the total run time was 2 min. […]

[5] = Permeability (physiochemical properties); format: in vitro ADME
[6] = Solubility in phosphate buffer saline (PBS); format: physicochemical; conditions: phosphate buffered saline (PBS)
TEAD = system: TEAD; parameters: method as in PMID 33679401; conditions: cellular assays; read-out: half-maximal inhibitory concentration (IC50) in cellular assays; cited from earlier work
[7] = 250 mg/kg, PO 250 mpk, mean ± SD

SMILES: Cc1nccnc1-c1nn2c(=O)cc(-c3ccc(C4CCCCC4)cc3)[nH]c2c1C(=O)N1CC(CF)C1 [G7883, 5-(4-cyclohexylphenyl)-3-[3-(fluoromethyl)azetidine-1-carbonyl]-2-(3-methylpyrazin-2-yl)-4H-pyrazolo[1,5-a]pyrimidin-7-one]
- solubility [1]: 85 µg/mL (≈ 170 µM)
- concentration at which a solution was achieved ([2]; 20%DMSO in 80%PEG400): ≥ 3300 µg/mL
- solubility in oil vehicle (in words) ([2]; sunflower oil): moderate solubility
- pKa [3]: 5.51
- AUC0 to 8 ([4]; PO 250 mpk, mean ± SD, 250 mg/kg): 25.1 ± 5.43 µM·h
- AUC(0-t) ([4]; 25 mg/kg, PO 25 mpk, mean ± SD): 1.99 ± 0.4 µM·h
- AUC(0-t) [4, 7]: 25 µM·h
- Cmax ([4]; 25 mg/kg, PO 25 mpk, mean ± SD): 1.25 ± 0.82 µM
- Tmax ([4]; 25 mg/kg, PO 25 mpk, mean ± SD): 0.5 h
- bioavailability ([4]; 25 mg/kg, PO 25 mpk, mean ± SD, read-out: F): 6.18 ± 1.24%
- half-life ([4]; 25 mg/kg, PO 25 mpk, mean ± SD, read-out: t1/2 (converted)): 2.17 ± 0.73 h
- Cmax [4, 7]: 6.85 ± 2.24 µM
- Tmax [4, 7]: 0.583 ± 0.382 h
- bioavailability ([4]; 250 mg/kg, PO 250 mpk, mean ± SD, read-out: F): 7.8 ± 1.69%
- half-life ([4]; 250 mg/kg, PO 250 mpk, mean ± SD, read-out: t1/2 (converted)): 2.74 ± 0.201 h
- bioavailability ([4]; PO, 25 to 250 mpk, read-out: bioavailability): ~7%
- half-life ([4]; PO, 25 to 250 mpk, read-out: plasma half-life (converted)): 2 h
- permeability (in words) [5]: moderate permeability
- Papp ([5]; not told): 5.79 ×10⁻⁶ cm/s
- solubility [6]: 89 µg/mL (≈ 178 µM)
- IC50 (TEAD): 1400 nM
